# According to patent publication US5016655A, “Cigarette manufacturing process” (priority 1989, dated 1991):
# Entries after “also recorded” stand apart in the source; their conditions may differ. Like-named read-outs stand apart in the source and are kept apart here.
# Experiments:
# human = details: cited from earlier work
# [1] = cited from earlier work; for Boiling Point: Table V
# rats = details: cited from earlier work
# [2] = system: localization of radioactivity ([14C]NNN) in bronchial epithelium; test: effect of substances on localization of radioactivity one hour after intravenous [14C]NNN (Table VI); type: in vivo, mice; details: for response on the uptake of radioactivity in the bronchial epithelium / decrease in the localization of radioactivity in bronchial epithelium: solids at ambient temperature; for decrease in the localization of radioactivity in bronchial epithelium: one hour after intravenous [14C]NNN
# From the text: Table VI below lists the compounds tested for their effect on the localization of radioactivity in bronchial epithelium one hour after intravenous administration of [^14 C]NNN. Unless indicated otherwise, the compounds were parenterally administered acutely at various times prior to [^14 C]NNN. In many cases only one mouse was studied for each compound. […].
# Effect of substances on the localization of radioactivity in bronchial epithelium of mice one hour after intravenously receiving [^14 C] nitrosonornicotine.
# For all the remaining compounds the general protocol was to administer the potential blocker some minutes prior to administration of the [^14 C]NNN. Potential blockers were given orally, intraperitoneally or by inhalation, and the [^14 C]NNN was given intravenously.
# tumor formation = details: rat, in vivo; cited from earlier work
# [3] = system: localization of nitrosamines (NNN, NNK) in tissues; test: nitrosamine delocalization / blocking, general statements; details: in vivo
# [4] = system: localization of radioactivity ([14C]NNN) in bronchial epithelium; test: orally administered alcohols, localization of radioactivity after intravenous [14C]NNN; type: in vivo, mice; details: gavage 1.0 g/kg, 20 min before iv [14C]NNN
# Description: For each of these alcohols, the mouse was fasted overnight, the alcohol in aqueous solution at a dose of 1.0 g/kg was administered by gavage and after twenty minutes the [^14 C]NNN was injected intravenously. All mice were sacrificed one hour after the [^14 C]NNN treatment and processed for whole-body autoradiography,as described previously.
# [5] = system: nitrosamine ([14C]NNN) localization; test: imidazole intraperitoneal, [14C]NNN autoradiography (Examples 4 and 5); type: in vivo, male C57BL/6J mouse; details: ip
# Description: An adult male C57BL/6J mouse was injected intraperitoneally with 0.02 ml/g body weight of a solution of imidazole in water. The imidazole solution concentration was such that 0.05 g of imidazole was delivered per kg of body weight. […] See Example 1.
# Example 4 was duplicated except that the adult mouse was injected intraperitoneally with 0.02 ml/g body weight of a solution of imidazole in water, wherein the solution concentration was such that 0.25 g of imidazole was delivered per kg of body weight.
# [6] = system: localization of radioactivity ([14C]NNN) in salivary duct and bronchial epithelium and liver; test: whole-body autoradiography of [14C]NNN localization after oral alcohols (Example 1, FIG. 1); type: in vivo, male C57BL/6J mice
# Description: One hour later, the mice were anesthetized lightly with ether and frozen by immersion in dry ice/hexane. Twenty u-thick whole-body sagittal sections of the frozen mice were taken onto Scotch tape and were then processed for whole-body autoradiography by known methods. See W. Waddell et al., Drug Fate and Metabolism: Methods and Techniques, E. R. Garrett and J. L. Hirtz, Eds. […] Photometric density in areas of the developed autoradiographs was measured with an ADG Instruments photometer and a photocell with an aperture of three mm lying on the easel of a photographic enlarger. The X-ray film was placed in the enlarger and raised to produce a magnification of thirty-five times on the easel.
# NNN. […] (Twenty minutes is the average time it takes for alcohols introduced by oral intubation into mice to reach the peak blood level.)
# The number within each bar thereof represents the dose in g/kg of that alcohol which was administered orally twenty minutes before the [^14 C] NNN was given intraveously. The mice were frozen one hour after receiving the [^14 C] NNN. The means for each mouse were from fifteen measurements on random areas of that site (five absorbancies on each of three autoradiographs) after setting blood in each on zero.
# [7] = system: localization of radioactivity of [14C]NNN in bronchial epithelium; test: alcohols by inhalation, localization of radioactivity of [14C]NNN (Table VII); type: in vivo, mice; details: for potency as inhibitor in mice: mouse, in vivo
# Description: Additional alcohols were tested for their effects on the localization of radioactivity of [^14 C]NNN in bronchial epithelium when the alcohols were administered by inhalation. For these studies, two ml of the alcohol were placed in the bottom of a 600 ml glass beaker. A wire mesh platform was constructed so that the mouse was positioned approximately three-quarter to one inch above the alcohol. The beaker was kept tightly sealed unless otherwise indicated. All mice were fasted overnight, except where noted, and sacrificed one hour after intravenous [^14 C]NNN administration. These mice were also processed for whole-body autoradiography. Although the protocols varied slightly as summarized below, these minor differences should not effect the results.
# A. Exposures in beakers maintained at 50° C. (plus or minus
# B. Exposure in beakers at room temperature. Beakers were
# C. Beakers equilibrated with alcohols at least 20 min in […]
# [8] = system: nitrosamine formation on epithelial membranes; tumor development; details: cited from earlier work
compound,measurement,setting,value
CCCCCCCCCCO [n-Decyl alcohol],Toxicity,human; Table V,Low-toxicity
same,Boiling Point,[1],210 °C
"CCCO [propyl alcohol, n-propanol]",Acute Oral LD50,"rats; rats, oral",5.4 q/kg
NCCCCN [putrescine],response on the uptake of radioactivity in the bronchial epithelium,[2],minimal response
CN(CCCC(=O)c1cccnc1)N=O [NNK],carcinogenicity / tumor induction,tumor formation,powerful environmental carcinogens
c1cn[nH]c1 [pyrazole],response on the uptake of radioactivity in the bronchial epithelium,[2],minimal response
same,nitrosamine delocalization / inhibition of nitrosamine localization,[3],found to delocalize nitrosamines
"CC1CCC(C(C)C)C(O)C1 (stereo not shown) [menthol, reference compound]",nitrosamine delocalization / inhibition of nitrosamine localization,[3],does not have the same nitrosamine blocking effect; also recorded: does not inhibit nitrosamine localization
same,Toxicity,human; Table V,Flavor Agent
same,Boiling Point,[1],216 °C
CCCCCCCCO [n-Octyl alcohol],Toxicity,human; Table V,Flavor agent
same,Boiling Point,[1],86 °C
Dipropylene glycol monomethyl,Boiling Point,[1],189 °C
CCCC(C)O (stereo not shown) [2-pentanol],decrease in the localization of radioactivity in bronchial epithelium,[4],significant decrease
"CCC(C)CO (stereo not shown) [active amyl alcohol, 2-methyl-1-butanol]",decrease in the localization of radioactivity in bronchial epithelium,[4],significant decrease
same,Acute Oral LD50,"rats; rats, oral",4.9 q/kg
"CC(C)CO [isobutyl alcohol, isobutanol]",decrease in the localization of radioactivity in bronchial epithelium,[4],significant decrease
same,Acute Oral LD50,"rats; rats, oral",2.46 q/kg
OCC=Cc1ccccc1 [Cinnamyl alcohol],Boiling Point,[1],257.5 °C
c1c[nH]cn1 [imidazole],nitrosamine delocalization,[5]; 0.05 g/kg,Significant nitrosamine delocalization
same,nitrosamine delocalization,[5]; 0.25 g/kg,significant delocalization of nitrosamine
same,decrease in the localization of radioactivity in bronchial epithelium,[2],significant decrease
same,nitrosamine delocalization / inhibition of nitrosamine localization,[3],found to delocalize nitrosamines
"[Cl-].[Na+] [sodium chloride, reference compound]",LD50,"rats; rats, oral, comparison",about 3.75 g/Kg
NCCCC(N)(C(=O)O)C(F)F (stereo not shown) [difluoromethylornithine],response on the uptake of radioactivity in the bronchial epithelium,[2],minimal response
CC(C)(C(=O)c1cccnc1)c1cccnc1 [metyrapone],decrease in the localization of radioactivity in bronchial epithelium,[2],significant decrease
CCO [ethanol],localization of radioactivity in salivary duct and bronchial epithelium and in both periportal and central areas of the liver,[6]; 20 min before iv [14C]NNN,reduced
CC1CCCC(O)C1 (stereo not shown) [3-methylcyclohexanol],potency compared with cyclohexanol,[7]; inhalation,even more potent than cyclohexanol
same,potency as inhibitor in mice,[7],among the most potent inhibitors
same,boiling points,[1],174 °
"CCC(C)O (stereo not shown) [sec-butyl alcohol, sec-butanol]",decrease in the localization of radioactivity in bronchial epithelium,[4],significant decrease
CCCCCCC(C)O (stereo not shown) [Capryl alcohol],Toxicity,human; Table V,Low toxity
same,Boiling Point,[1],178 °C
Methyl cyclohexanol,Boiling Point,[1],173 °C
CCCCCCC(C)O (stereo not shown) [2-octanol],potency as inhibitor in mice,[7],among the most potent inhibitors
same,effectiveness against NNN or NNK,[3],against NNK
same,boiling points,[1],180 °
S=C=NCc1ccccc1 [benzyl isothiocyanate],nitrosamine delocalization / inhibition of nitrosamine localization,[3],found to delocalize nitrosamines
"C[S+](C)[O-] [DMSO, dimethylsulfoxide]","decrease of radioactivity in bronchial epithelium, oral vs ip",[2]; given orally,less decrease
same,nitrosamine delocalization / inhibition of nitrosamine localization,[3],found to delocalize nitrosamines
c1ccc2ccccc2c1 [naphthalene],decrease in the localization of radioactivity in bronchial epithelium,[2],significant decrease
"O=C1O[C@H]([C@@H](O)CO)C(O)=C1O [Vitamin C, ascorbic acid]",effect on formation of nitrosamines on epithelial membranes,[8],prevent the formation of nitrosamines
O=Cc1ccc2c(c1)OCO2 [piperonal],decrease in the localization of radioactivity in bronchial epithelium,[2],significant decrease
"CCCCCCCCCCCCO [dodecanol, 98%, dodecanol]",Acute Oral LD50,"rats; rats, oral",40 q/kg
"CC(C)O [isopropyl alcohol, isopropanol]",Acute Oral LD50,"rats; rats, oral",5.84 q/kg
C#CCN(C)Cc1ccccc1 [parqyline],response on the uptake of radioactivity in the bronchial epithelium,[2],minimal response
diaminopropane HCl,response on the uptake of radioactivity in the bronchial epithelium,[2],minimal response
CCCCCCCCCCCCO [Lauryl alcohol],Toxicity,human; Table V,Low-toxicity
same,Boiling Point,[1],255 °C
"OCCC(O)CO (stereo not shown) [1,2,4-ButanetrioI, 1,2,4-butanetriol]",Toxicity,human; Table V,Non-toxic
same,Boiling Point,[1],172 °C
CC(C)[C@@H]1CC[C@@H](C)C[C@H]1O [1-menthol],response on the uptake of radioactivity in the bronchial epithelium,[2],minimal response
vitamin E,effect on formation of nitrosamines on epithelial membranes,[8],prevent the formation of nitrosamines
CCCCCCCCCO [n-Nonyl alcohol],Toxicity,human; Table V,Low-toxicity
CC1=C(/C=C/C(C)=C/C=C/C(C)=C/CO)C(C)(C)CCC1 [retinol],response on the uptake of radioactivity in the bronchial epithelium,[2],minimal response
CC(C)(O)C(C)(C)O [Pinacol],Toxicity,human; Table V,Low-toxicity
same,Boiling Point,[1],174 °C
[Se] [Selenium],effect on tumor development,[8],inhibit tumor development
Vitamin A,effect on tumor development,[8],inhibit tumor development
"CC(O)CCO (stereo not shown) [1,3 Butanediol]",Toxicity,human; Table V,Non-toxic
same,Boiling Point,[1],207 °C
CCCCCCO [1-hexanol],potency as inhibitor in mice,[7],among the most potent inhibitors
CCCCC(CC)CO (stereo not shown) [2-ethyl hexanol],Acute Oral LD50,"rats; rat, in vivo, po",3.2-7.1
same,Toxicity,human; Table V,Low-toxicity
"CCCCCCCCCCCCCCCCO [Cetyl alcohol, hexadecanol]",Toxicity,human; Table V,Non-toxic
same,Toxicity,human,non-toxic
same,Boiling Point,[1],344 °C
CC(C)CCO [isoamyl alcohol],decrease in the localization of radioactivity in bronchial epithelium,[4],significant decrease
same,Acute Oral LD50,"rats; rats, oral",1.30 q/kg
CCC(CC)CO [2-Ethyl butyl alcohol],Toxicity,human; Table V,Low-toxicity
same,Boiling Point,[1],149 °C
CC(C)(C)O [t-butanol],localization of [14C]NNN in bronchial epithelium,[6]; high dosage,almost completely abolished; also recorded: greatest inhibition
"CCCCCCCCCCCCCCCCCCO [Stearyl alcohol, octadecanol]",Toxicity,human; Table V,Non-toxic
same,Toxicity,human,non-toxic
same,Boiling Point,[1],210 °C
CC1=C(/C=C/C(C)=C/C=C/C(C)=C/C(=O)O)C(C)(C)CCC1 [retinoic acid],response on the uptake of radioactivity in the bronchial epithelium,[2],minimal response
